Laboratory results taken from patent US20260297131A1, “COMPOSITIONS AND METHODS FOR PEPTIDE-BASED MODULATORS OF HUMAN PAPILLOMAVIRUS ONCOPROTEIN E6” (priority 2023, published 2026).
Square brackets hold non-standard residues; d marks the D form. Peptide text beside a SMILES is read from it. * marks the point of attachment. 2Nal = N[C@@H](Cc1ccc2ccccc2c1)C(=O)O; Gly(cPent) = N[C@H](C(=O)O)C1CCCC1; Ala(cPr) = N[C@@H](CC1CC1)C(=O)O; X1 = O=C(Cn1c2ccccc2c2ccccc21)*; Aad = N[C@@H](CCCC(=O)O)C(=O)O; Cba = N[C@@H](CC1CCC1)C(=O)O; Aib = CC(C)(N)C(=O)O; Dha = C=C(N)C(=O)O

How the values were obtained:
MBP-16E6 [1] = target: T1, MBP-16E6 (Human papillomavirus 16, UniProt P03126, C104S/C118S/C147S/C87S); settings: for mono-crosslink yield at 1 h: 1 μM MBP-16E6, 4 μM Dha peptide; for mono-crosslink in 2 h: 2 h at 37° C., 10 eq. to protein 16E6
MBP-16E6 [2] = target: T1, MBP-16E6; experiment: biochemical
MBP-16E6 [3] = target: T1, MBP-16E6; settings: for improvement of binding relative to peptide 18: apparent Ki; for Ratio to wild-type: N-terminal modified peptides, KD of WT divided by KD
[4] = target: SARS-CoV-2 3C-Like Protease; settings: role: inhibitor; comparison drug; cited from earlier work
[5] = KD in nM, N-terminal modified peptides, competition mode, N = 2 or 3, SEM of curve fitting
[6] = competition KD, BLI competition, values in text

T1 sequence (P03126 whole entry C104S/C118S/C147S/C87S, looked up): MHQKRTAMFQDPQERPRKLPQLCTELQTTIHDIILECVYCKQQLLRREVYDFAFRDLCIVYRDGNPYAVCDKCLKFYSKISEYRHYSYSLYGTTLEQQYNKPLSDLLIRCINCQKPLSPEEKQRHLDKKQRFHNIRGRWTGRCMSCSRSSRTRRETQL

C=C(NC(=O)[C@H](CC(C)C)NC(=O)[C@H](CC1CCC1)NC(=O)[C@H](CCC(=O)O)NC(=O)C(C)(C)NC(=O)[C@H](CC(C)C)NC(=O)[C@@H](NC(=O)[C@H](Cc1ccc2ccccc2c1)NC(=O)[C@H](CCCC(=O)O)NC(=O)[C@H](C)NC(=O)[C@H](CO)NC(=O)[C@H](CCC(N)=O)NC(=O)[C@@H]1CCCN1C(=O)[C@@H](NC(=O)Cn1c2ccccc2c2ccccc21)[C@@H](C)CC)C1CCCC1)C(N)=O [18-Car-IPQSA-truncEER] (X1-IPQSA[Aad][2Nal][Gly(cPent)]L[Aib]E[Cba]L[Dha]-NH2)
mono-crosslink yield at 1 h (MBP-16E6 [1]): 76% | mono-crosslink in 2 h (MBP-16E6 [1]): quantitatively mono-crosslink | Ki (MBP-16E6 [2]): 44 ± 11 nM

C=C(NC(=O)[C@H](C)NC(=O)[C@H](C)NC(=O)[C@H](CCC(=O)O)NC(=O)C(C)(C)NC(=O)[C@H](C)NC(=O)[C@@H](NC(=O)[C@H](Cc1ccc2ccccc2c1)NC(=O)[C@@H](N)CCCC(=O)O)C1CCCC1)C(=O)N[C@@H](CCC(=O)O)C(=O)N[C@@H](CCC(=O)O)C(=O)N[C@@H](CCCNC(=N)N)C(N)=O [Peptide 18-3L3A] (H-[Aad][2Nal][Gly(cPent)]A[Aib]EAA[Dha]EER-NH2)
binding to MBP-16E6 (MBP-16E6 [3]; BLI): no observable binding | crosslinking to MBP-16E6 (MBP-16E6 [1]; LC-MS): no observable crosslinking

C=C(NC(=O)[C@H](CC(C)C)NC(=O)[C@H](CC1CCC1)NC(=O)[C@H](CCC(=O)O)NC(=O)C(C)(C)NC(=O)[C@H](CC(C)C)NC(=O)[C@@H](NC(=O)[C@H](Cc1ccc2ccccc2c1)NC(=O)[C@H](CCCC(=O)O)NC(=O)[C@H](C)NC(=O)[C@H](CO)NC(=O)[C@H](CCC(N)=O)NC(=O)[C@@H]1CCCN1C(=O)[C@@H](NC(=O)Cn1c2ccccc2c2ccccc21)[C@@H](C)CC)C1CCCC1)C(=O)N[C@@H](CCC(=O)O)C(=O)N[C@@H](CCC(=O)O)C(=O)N[C@@H](CCCNC(=N)N)C(N)=O [Peptide 18-Car-IPQSA] (X1-IPQSA[Aad][2Nal][Gly(cPent)]L[Aib]E[Cba]L[Dha]EER-NH2)
improvement of binding relative to peptide 18 (MBP-16E6 [3]): 7 fold | mono-crosslink yield at 1 h (MBP-16E6 [1]): 85% | mono-crosslink in 2 h (MBP-16E6 [1]): quantitatively mono-crosslink | Ki (MBP-16E6 [2]): 25 ± 5.5 nM

C=C(NC(=O)[C@H](CC(C)C)NC(=O)[C@H](CC1CCC1)NC(=O)[C@H](CCC(=O)O)NC(=O)C(C)(C)NC(=O)[C@H](CC(C)C)NC(=O)[C@@H](NC(=O)[C@H](Cc1ccc2ccccc2c1)NC(=O)[C@H](CCCC(=O)O)NC(=O)Cn1c2ccccc2c2ccccc21)C1CCCC1)C(=O)N[C@@H](CCC(=O)O)C(=O)N[C@@H](CCC(=O)O)C(=O)N[C@@H](CCCNC(=N)N)C(N)=O [Peptide 18-Car] (X1-[Aad][2Nal][Gly(cPent)]L[Aib]E[Cba]L[Dha]EER-NH2)
improvement of binding relative to peptide 18 (MBP-16E6 [3]): 3 fold | mono-crosslink in 2 h (MBP-16E6 [1]): quantitatively mono-crosslink | Ki (MBP-16E6 [2]): 96 ± 33 nM

C=C(NC(=O)[C@H](CC(C)C)NC(=O)[C@H](CC1CCC1)NC(=O)[C@H](CCC(=O)O)NC(=O)C(C)(C)NC(=O)[C@H](CC(C)C)NC(=O)[C@@H](NC(=O)[C@H](CCCCNC(=O)Cn1c2ccccc2c2ccccc21)NC(=O)[C@H](CCCC(=O)O)NC(C)=O)C1CCCC1)C(=O)N[C@@H](CCC(=O)O)C(=O)N[C@@H](CCC(=O)O)C(=O)N[C@@H](CCCNC(=N)N)C(N)=O [Peptide 18-Naf2Cab] (Ac-[Aad]K(X1)[Gly(cPent)]L[Aib]E[Cba]L[Dha]EER-NH2)
mono-crosslink yield at 1 h (MBP-16E6 [1]): 83% | mono-crosslink in 2 h (MBP-16E6 [1]): quantitatively mono-crosslink | Ki (MBP-16E6 [2]): 51 ± 11 nM

CC[C@H](C)[C@H](NC(=O)c1c(O)cccc1O)C(=O)N1CCC[C@H]1C(=O)N[C@@H](CCC(=O)O)C(=O)N[C@@H](CO)C(=O)N[C@@H](CO)C(=O)N[C@@H](CCC(=O)O)C(=O)N[C@@H](CC(C)C)C(=O)N[C@H](C(=O)N[C@@H](CC(C)C)C(=O)N[C@@H](CCC(N)=O)C(=O)N[C@@H](CCC(=O)O)C(=O)N[C@@H](CC(C)C)C(=O)N[C@@H](CC(C)C)C(=O)NCC(=O)N[C@@H](CCC(=O)O)C(=O)N[C@@H](CCC(=O)O)C(=O)N[C@@H](CCCNC(=N)N)C(=O)N[C@@H](CCCNC(=N)N)C(N)=O)[C@@H](C)O [Peptide N15]
Ratio to wild-type (MBP-16E6 [3]): 3.1 | Kd (MBP-16E6 [2]; [5]): 767 ± 295 nM

CC[C@H](C)[C@H](NC(=O)c1c(F)c(F)c(F)c(F)c1F)C(=O)N1CCC[C@H]1C(=O)N[C@@H](CCC(=O)O)C(=O)N[C@@H](CO)C(=O)N[C@@H](CO)C(=O)N[C@@H](CCC(=O)O)C(=O)N[C@@H](CC(C)C)C(=O)N[C@H](C(=O)N[C@@H](CC(C)C)C(=O)N[C@@H](CCC(N)=O)C(=O)N[C@@H](CCC(=O)O)C(=O)N[C@@H](CC(C)C)C(=O)N[C@@H](CC(C)C)C(=O)NCC(=O)N[C@@H](CCC(=O)O)C(=O)N[C@@H](CCC(=O)O)C(=O)N[C@@H](CCCNC(=N)N)C(=O)N[C@@H](CCCNC(=N)N)C(N)=O)[C@@H](C)O [Peptide N16]
Ratio to wild-type (MBP-16E6 [3]): 10.7 | Kd (MBP-16E6 [2]; [5]): 228 ± 74 nM

CC[C@H](C)[C@H](NC(=O)c1ccc2cc(O)ccc2c1)C(=O)N1CCC[C@H]1C(=O)N[C@@H](CCC(=O)O)C(=O)N[C@@H](CO)C(=O)N[C@@H](CO)C(=O)N[C@@H](CCC(=O)O)C(=O)N[C@@H](CC(C)C)C(=O)N[C@H](C(=O)N[C@@H](CC(C)C)C(=O)N[C@@H](CCC(N)=O)C(=O)N[C@@H](CCC(=O)O)C(=O)N[C@@H](CC(C)C)C(=O)N[C@@H](CC(C)C)C(=O)NCC(=O)N[C@@H](CCC(=O)O)C(=O)N[C@@H](CCC(=O)O)C(=O)N[C@@H](CCCNC(=N)N)C(=O)N[C@@H](CCCNC(=N)N)C(N)=O)[C@@H](C)O [Peptide N17]
Ratio to wild-type (MBP-16E6 [3]): 15.3 | Kd (MBP-16E6 [2]; [5]): 159 ± 47 nM

CC[C@H](C)[C@H](NC(=O)CCCc1ccc2ccc3cccc4ccc1c2c34)C(=O)N1CCC[C@H]1C(=O)N[C@@H](CCC(=O)O)C(=O)N[C@@H](CO)C(=O)N[C@@H](CO)C(=O)N[C@@H](CCC(=O)O)C(=O)N[C@@H](CC(C)C)C(=O)N[C@H](C(=O)N[C@@H](CC(C)C)C(=O)N[C@@H](CCC(N)=O)C(=O)N[C@@H](CCC(=O)O)C(=O)N[C@@H](CC(C)C)C(=O)N[C@@H](CC(C)C)C(=O)NCC(=O)N[C@@H](CCC(=O)O)C(=O)N[C@@H](CCC(=O)O)C(=O)N[C@@H](CCCNC(=N)N)C(=O)N[C@@H](CCCNC(=N)N)C(N)=O)[C@@H](C)O [Peptide N18]
Ratio to wild-type (MBP-16E6 [3]): 23 | Kd (MBP-16E6 [2]; [5]): 106 ± 27 nM

CC[C@H](C)[C@H](NC(=O)c1ccc2c3c(cccc13)CC2)C(=O)N1CCC[C@H]1C(=O)N[C@@H](CCC(=O)O)C(=O)N[C@@H](CO)C(=O)N[C@@H](CO)C(=O)N[C@@H](CCC(=O)O)C(=O)N[C@@H](CC(C)C)C(=O)N[C@H](C(=O)N[C@@H](CC(C)C)C(=O)N[C@@H](CCC(N)=O)C(=O)N[C@@H](CCC(=O)O)C(=O)N[C@@H](CC(C)C)C(=O)N[C@@H](CC(C)C)C(=O)NCC(=O)N[C@@H](CCC(=O)O)C(=O)N[C@@H](CCC(=O)O)C(=O)N[C@@H](CCCNC(=N)N)C(=O)N[C@@H](CCCNC(=N)N)C(N)=O)[C@@H](C)O [Peptide N19]
Ratio to wild-type (MBP-16E6 [3]): 44.4 | Kd (MBP-16E6 [2]; [5]): 55 ± 12 nM | Kd (MBP-16E6 [2]; [6]): < 70 nM

CC[C@H](C)[C@H](NC(=O)Cc1cc(=O)oc2cc(OC)ccc12)C(=O)N1CCC[C@H]1C(=O)N[C@@H](CCC(=O)O)C(=O)N[C@@H](CO)C(=O)N[C@@H](CO)C(=O)N[C@@H](CCC(=O)O)C(=O)N[C@@H](CC(C)C)C(=O)N[C@H](C(=O)N[C@@H](CC(C)C)C(=O)N[C@@H](CCC(N)=O)C(=O)N[C@@H](CCC(=O)O)C(=O)N[C@@H](CC(C)C)C(=O)N[C@@H](CC(C)C)C(=O)NCC(=O)N[C@@H](CCC(=O)O)C(=O)N[C@@H](CCC(=O)O)C(=O)N[C@@H](CCCNC(=N)N)C(=O)N[C@@H](CCCNC(=N)N)C(N)=O)[C@@H](C)O [Peptide N20]
Ratio to wild-type (MBP-16E6 [3]): 11.4 | Kd (MBP-16E6 [2]; [5]): 213 ± 47 nM

CC[C@H](C)[C@H](NC(=O)[C@@H](N)Cc1ccc(-c2ccccc2)cc1)C(=O)N1CCC[C@H]1C(=O)N[C@@H](CCC(=O)O)C(=O)N[C@@H](CO)C(=O)N[C@@H](CO)C(=O)N[C@@H](CCC(=O)O)C(=O)N[C@@H](CC(C)C)C(=O)N[C@H](C(=O)N[C@@H](CC(C)C)C(=O)N[C@@H](CCC(N)=O)C(=O)N[C@@H](CCC(=O)O)C(=O)N[C@@H](CC(C)C)C(=O)N[C@@H](CC(C)C)C(=O)NCC(=O)N[C@@H](CCC(=O)O)C(=O)N[C@@H](CCC(=O)O)C(=O)N[C@@H](CCCNC(=N)N)C(=O)N[C@@H](CCCNC(=N)N)C(N)=O)[C@@H](C)O [Peptide N21]
Ratio to wild-type (MBP-16E6 [3]): 1.7 | decrease in binding by change of terminal group (MBP-16E6 [3]; relative to fluorene-modified N1 / parent modification): ~ 27 fold | Kd (MBP-16E6 [2]; [5]): 1410 ± 757 nM | Kd (MBP-16E6 [2]; [6]): 1410 nM

CC[C@H](C)[C@H](NC(=O)[C@@H](N)CC1CCCCC1)C(=O)N1CCC[C@H]1C(=O)N[C@@H](CCC(=O)O)C(=O)N[C@@H](CO)C(=O)N[C@@H](CO)C(=O)N[C@@H](CCC(=O)O)C(=O)N[C@@H](CC(C)C)C(=O)N[C@H](C(=O)N[C@@H](CC(C)C)C(=O)N[C@@H](CCC(N)=O)C(=O)N[C@@H](CCC(=O)O)C(=O)N[C@@H](CC(C)C)C(=O)N[C@@H](CC(C)C)C(=O)NCC(=O)N[C@@H](CCC(=O)O)C(=O)N[C@@H](CCC(=O)O)C(=O)N[C@@H](CCCNC(=N)N)C(=O)N[C@@H](CCCNC(=N)N)C(N)=O)[C@@H](C)O [Peptide N22]
Ratio to wild-type (MBP-16E6 [3]): 1.4 | Kd (MBP-16E6 [2]; [5]): 1660 ± 705 nM

CC(C)(C)[C@H](NC(=O)C(F)(F)F)C(=O)N1C[C@H]2[C@@H]([C@H]1C(=O)N[C@H](C#N)C[C@@H]1CCNC1=O)C2(C)C [nirmatrelvir]
kinact/Ki [4]: 55000 M⁻¹ s⁻¹

C=C(NC(=O)[C@H](CC(C)C)NC(=O)[C@H](CC(C)C)NC(=O)[C@H](CCCC(=O)O)NC(=O)C(C)(C)NC(=O)[C@H](CC1CC1)NC(=O)[C@@H](NC(=O)[C@H](Cc1ccc2ccccc2c1)NC(=O)[C@@H](N)CCCC(=O)O)C1CCCC1)C(=O)N[C@@H](CCC(=O)O)C(=O)N[C@@H](CCC(=O)O)C(=O)N[C@@H](CCCNC(=N)N)C(N)=O [peptide 23] (H-[Aad][2Nal][Gly(cPent)][Ala(cPr)][Aib][Aad]LL[Dha]EER-NH2)
improved affinity compared to parent reactide ELT-DHA9G (MBP-16E6 [3]): 50 fold
